# Data: patent publication US20040037897A1, “Treatment of drug resistant organisms” (priority 2000, published 2004)
# Tested on: Staphylococcus aureus organisms
# Assay: In vitro tests of susceptibility to NO
# Format: cell-based
smiles,measurement,value
"[N]=O [NO, Nitric oxide]",susceptibility to NO,susceptible
